Laboratory results published in paper PMC5442318, “Hundreds of dual-stage antimalarial molecules discovered by a functional gametocyte screen” (Nature Communications, 2017).
Where two headings read alike, the source gives them in different places.

Legend:
[1] = test system: P. falciparum stage V female gametocytes; assay: P. falciparum female gametocyte activation assay (Pf FGAA), 24 h or 48 h preincubation, Pfs25 expression readout; type: cell-based, Plasmodium falciparum NF54; details: for Pf FGAA classification: SLOW / FAST / GAMETE from activity at 48h, 24h, 0h incubation
In short: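 Female activation, triggered by xanthurenic acid and cooling, was scored by imaging Cy3-labelled anti-Pfs25 female gametes after 24 h at 26 °C. Beforehand, purified NF54 stage V gametocytes had been incubated with compound for either 24 h or 48 h (37 °C, 3% O2). Values are pIC50 from full-curve regression.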

[2] = test system: P. falciparum female gametes; assay: Pf FGAA with compounds added 30 min after triggering gametocyte activation (gamete-targeting); type: cell-based, Plasmodium falciparum NF54; details: 0h incubation time
[3] = test system: P. falciparum stages IV–V gametocytes; assay: Gametocytocidal ATP-depletion assay (gametocyte ATP bioluminescence); type: cell-based, Plasmodium falciparum; details: for inhibition at 2 µM: Plasmodium falciparum, mean
In short: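 Read-out is luciferase luminescence of parasite ATP (BacTiter-Glo), standing in for viability. Double-purified mature stage IV–V gametocytes, 12,500 per well, were exposed 48 h at 37 °C in low-O2 gas; screening concentration 2 μM.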

HepG2 cells = assay: HepG2 cytotoxicity assay; type: cell-based; details: for Selectivity ratio: HepG2 TOX50 versus Pf FGAA IC50
In short: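 Cell viability is measured by CellTiter-Glo luminescence. Signal is developed at room temperature and read 10 min after adding the reagent, with plates and reagent first equilibrated for 30 min.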

[4] = test system: P. falciparum asexual blood stages; details: ref 1 (Gamo, F. J. et al., Nature 465, 305-310, 2010), cited from earlier work; for IC50: TCAMS asexual blood stage data, read-out: Pf Asexual blood stages XC50; for Pf Asexual stages XC50: TCAMS data
[5] = 24h incubation time, read-out: Pf FGAA IC50 (µM) 24h
[6] = P. falciparum female gametocytes, mean, read-out: Gametocytes mean Pf FGAA IC50
[7] = Plasmodium falciparum, 24h incubation time, read-out: Pf FGAA IC50 (µM) 24h
[8] = Plasmodium falciparum, P. falciparum female gametocytes, mean, read-out: Gametocytes mean Pf FGAA IC50

Row | IC50 [1, 7] [µM] | IC50 [1, 8] [µM] | IC50 ([2]; Plasmodium falciparum) [µM] | Structure (SMILES) | IC50 [1, 5] [µM] | IC50 [1, 6] [µM] | Pf FGAA classification [1] | IC50 [2] [µM] | Gametocytes mean ATP inhibition at 2µM [3] [%] | HepG2 cells TOX50 (HepG2 cells; HepG2 cells) [µM] | HepG2 cells mean TOX50 (HepG2 cells; HepG2 cells, mean) [µM] | IC50 [4] [nM] | Pf Asexual stages XC50 [4] [nM] | inhibition at 2 µM [3] [%] | Selectivity ratio (HepG2 cells) | HepG2 cells mean TOX50 (HepG2 cells; human, 48 h) [µM]
1 | – | – | – | CCCc1cc(=O)[nH]c(-n2nc(C)cc2NC(=O)CC(c2ccccc2)c2ccccc2)n1 [TCMDC-124940] | 0.41 | 1.3 | FAST | > 20 | 0.055 | >100 | >100 | 620 | 510 | – | – | –
2 | 2.16 | 1.08 | 10.1 | COc1ccc(NC(=O)Nc2ccc(Nc3nc(C)cc(N4CCCC4)n3)cc2)cc1 [TCMDC-124958] | – | – | FAST | – | – | – | 11.89 | 140 | 140 | -9.01 | 11.05 | –
3 | – | – | – | O=C(c1ccc([N+](=O)[O-])o1)N1CCN(c2nc3c(F)cc(F)cc3s2)CC1 [TCMDC-125149] | 1.25 | 1.31 | FAST | > 20 | 5.52 | >100 | >100 | 970 | 970 | – | – | –
4 | – | – | – | CNCCCNCc1ccc(-c2ccc(F)c(Cl)c2)o1.Cl [TCMDC-125237] | 1.57 | 1.87 | FAST | > 20 | -1.51 | – | 10.60 | 750 | 750 | – | – | –
5 | – | – | – | Cc1ccc(-n2c(Sc3ncnc4sccc34)nnc2N2CCCC2)cc1 [TCMDC-125247] | > 20 | 0.49 | SLOW | > 20 | 22.13 | – | 89.13 | 260 | 260 | – | – | –
6 | – | – | – | O=C(Nc1nc(-c2ccccn2)cs1)c1ccc(S(=O)(=O)N2CCc3ccccc32)cc1 [TCMDC-125432] | 0.7 | 1.07 | FAST | > 20 | -8.57 | – | 29.22 | 830 | 830 | – | – | –
7 | – | – | – | CCN(CCNS(C)(=O)=O)c1ccc(N)c(C)c1.O.O=S(=O)(O)O [TCMDC-125836] | 0.3 | 1.14 | FAST | 3.56 | 7.23 | – | 26.14 | 880 | 880 | – | – | –
8 | – | – | – | C[C@H](Cc1ccc(OCCCCCCOc2ccc(C[C@@H](C)N[C@H](C)c3ccccc3)cc2)cc1)NC[C@H](O)c1cccc(Cl)c1.Cl [TCMDC-131564] | 2.89 | 0.72 | SLOW | > 20 | 38.50 | – | 4.28 | 240 | 240 | – | – | –
9 | – | – | – | O=C(O)C(F)(F)F.O=S(=O)(NCCN1CCCC1)c1ccc(-c2cccc(CNC3Cc4ccccc4C3)c2)s1 [TCMDC-132217] | 5.37 | 1.29 | SLOW | > 20 | 18.03 | – | 5.50 | 750 | 750 | – | – | –
10 | – | – | – | CN1CCC(NCc2cccc(-c3ccc(S(=O)(=O)NCc4ccccc4)c(F)c3)c2)CC1.O=C(O)C(F)(F)F [TCMDC-132219] | 12.2 | 2.63 | SLOW | > 20 | -1.59 | – | 5.13 | 320 | 320 | – | – | –
11 | – | – | – | Cc1cccc2nc(-c3ccc(-c4ccc(CNCc5ccc(CN)cc5)cc4)s3)[nH]c12.O=C(O)C(F)(F)F [TCMDC-132809] | 1.17 | 0.47 | FAST | 5.14 | 36.48 | – | 14.79 | 440 | 440 | – | – | –
12 | – | – | – | Cc1cccc2nc(-c3ccc(-c4ccc(CNCc5ccc(CN)cc5)cc4)cc3)[nH]c12.O=C(O)C(F)(F)F [TCMDC-132813] | 0.21 | 2.16 | FAST | 4.35 | 13.49 | – | 18.09 | 720 | 720 | – | – | –
13 | – | – | – | FC(F)(F)c1ccc2[nH]c(-c3ccc(-c4ccc(CNCCN5CCNCC5)cc4)cc3)nc2c1.O=C(O)C(F)(F)F [TCMDC-132865] | > 20 | 1.41 | SLOW | > 20 | -10.30 | – | 16.43 | 1120 | 1120 | – | – | –
14 | – | – | – | Cc1cccc2nc(-c3ccc(-c4ccc(CNCCN5CCNCC5)cc4)s3)[nH]c12.O=C(O)C(F)(F)F [TCMDC-132870] | 18.8 | 1.53 | SLOW | > 20 | 8.76 | – | 14.29 | 1150 | 1150 | – | – | –
15 | 1.98 | 0.75 | > 20 | NC1CCN(CCc2ccc(NS(=O)(=O)c3ccc(-c4ccccc4)cc3)cc2)CC1 [TCMDC-134085] | – | – | FAST | – | – | – | 7.17 | 1020 | 1020 | -6.2 | 9.58 | –
16 | – | – | – | Cc1ccc(C(C(=O)Nc2ccc(N3CCNCC3)c(Cl)c2)c2ccccc2)cc1 (stereo not shown) [TCMDC-134292] | 17 | 0.66 | SLOW | > 20 | 19.42 | – | 11.89 | 840 | 840 | – | – | –
17 | – | – | – | COc1cccc(-c2csc(C(=O)NCC3CCN(Cc4ccc(C(C)C)cc4)C3)c2)c1.O=C(O)C(F)(F)F (stereo not shown) [TCMDC-134439] | 3.22 | 1.37 | SLOW | > 20 | 2.89 | – | 11.51 | 1390 | 1390 | – | – | –
18 | – | – | – | O=C(NCC1CCN(Cc2cccc(C(F)(F)F)c2)C1)c1cc(-c2cccc(C(F)(F)F)c2)cs1.O=C(O)C(F)(F)F (stereo not shown) [TCMDC-134483] | 2.45 | 1.65 | SLOW | > 20 | -4.13 | – | 16.22 | 610 | 610 | – | – | –
19 | – | – | – | O=C(NCC1CCN(Cc2cccc(C(F)(F)F)c2)C1)c1cc(-c2cccc(F)c2)cs1.O=C(O)C(F)(F)F (stereo not shown) [TCMDC-134484] | 2.82 | 2.26 | SLOW | > 20 | -3.56 | – | 18.87 | 1180 | 1180 | – | – | –
20 | – | – | – | O=C(NCC1CCN(Cc2cccc(C(F)(F)F)c2)C1)c1cc(-c2cccc(Cl)c2)cs1.O=C(O)C(F)(F)F (stereo not shown) [TCMDC-134485] | 12 | 0.89 | SLOW | > 20 | 2.16 | – | 16.03 | 800 | 800 | – | – | –
21 | – | – | – | CN(C)c1ccc(-c2csc(C(=O)NCC3CCN(Cc4cccc(C(F)(F)F)c4)C3)c2)cc1.O=C(O)C(F)(F)F (stereo not shown) [TCMDC-134486] | 2.56 | 1.56 | SLOW | > 20 | -14.11 | – | 8.18 | 840 | 840 | – | – | –

Row | Structure (SMILES) | IC50 [1, 7] [µM] | IC50 [1, 8] [µM] | IC50 ([2]; Plasmodium falciparum) [µM] | IC50 [1, 5] [µM] | IC50 [1, 6] [µM] | Pf FGAA classification [1] | IC50 [2] [µM] | Gametocytes mean ATP inhibition at 2µM [3] [%] | HepG2 cells TOX50 (HepG2 cells; HepG2 cells) [µM] | HepG2 cells mean TOX50 (HepG2 cells; HepG2 cells, mean) [µM] | IC50 [4] [nM] | Pf Asexual stages XC50 [4] [nM] | inhibition at 2 µM [3] [%] | Selectivity ratio (HepG2 cells) | HepG2 cells mean TOX50 (HepG2 cells; human, 48 h) [µM]
22 | N#Cc1c(F)cc(N2CCC(NCC[C@H](N)Cc3ccc(F)c(F)c3)CC2)cc1F [TCMDC-132121] | 7.16 | 0.73 | 7.08 | – | – | SLOW | – | – | – | – | 860 | 860 | 7.46 | 6.30 | 4.58
